Test results: the kinase profiling compilation of Christmann-Franck et al. (2016)
Blank lines part the entries; values can stand above or below the compound they belong to.

Tests used:
Test in all cases: radiometric filter-binding kinase assay
[1] = biological target: PLK1 (human) (UniProt P53350)
[2] = biological target: NEK7 (human) (UniProt Q8TDX7)
[3] = biological target: CAMKK1 (human) (UniProt Q8N5S9)
[4] = biological target: AURKC (human) (UniProt Q9UQB9)
[5] = biological target: WNK1 (human) (UniProt Q9H4A3)
[6] = biological target: TSSK1B (human) (UniProt Q9BXA7)
[7] = biological target: CSNK1G2 (human) (UniProt P78368)
[8] = biological target: STK33 (human) (UniProt Q9BYT3)
[9] = biological target: EIF2AK3 (human) (UniProt Q9NZJ5)
[10] = biological target: MAP4K5 (human) (UniProt Q9Y4K4)
[11] = biological target: ABL1 (human) (UniProt P00519)
[12] = biological target: SIK3 (human) (UniProt Q9Y2K2)
[13] = biological target: PDGFRA (human) (UniProt P16234)
[14] = biological target: MAP4K3 (human) (UniProt Q8IVH8)
[15] = biological target: ULK1 (human) (UniProt O75385)
[16] = biological target: TTBK1 (human) (UniProt Q5TCY1)
[17] = biological target: PRKCG (human) (UniProt P05129)
[18] = biological target: TLK1 (human) (UniProt Q9UKI8)
[19] = biological target: TESK1 (human) (UniProt Q15569)
[20] = biological target: ZAP70 (human) (UniProt P43403)
[21] = biological target: IRAK1 (human) (UniProt P51617)
[22] = biological target: STK24 (human) (UniProt Q9Y6E0)
[23] = biological target: PRKAA1 PRKAB2 PRKAG1 (human) (UniProt O43741+Q13131+P54619)
[24] = biological target: SIK2 (human) (UniProt Q9H0K1)
[25] = biological target: CDK9 CCNT1 (human) (UniProt P50750+O60563)
[26] = biological target: MAPK7 (human) (UniProt Q13164)
[27] = biological target: DDR2 (human) (UniProt Q16832)
[28] = biological target: PTK6 (human) (UniProt Q13882)
[29] = biological target: ULK2 (human) (UniProt Q8IYT8)
[30] = system: OXSR1 (human), O95747 [T185E]
[31] = biological target: TTBK2 (human) (UniProt Q6IQ55)
[32] = system: TGFBR1 (human), P36897 [T204D]
[33] = biological target: STK16 (human) (UniProt O75716)
[34] = biological target: TEK (human) (UniProt Q02763)

Sequence of TSSK1B (human) (Q9BXA7 whole entry, looked up): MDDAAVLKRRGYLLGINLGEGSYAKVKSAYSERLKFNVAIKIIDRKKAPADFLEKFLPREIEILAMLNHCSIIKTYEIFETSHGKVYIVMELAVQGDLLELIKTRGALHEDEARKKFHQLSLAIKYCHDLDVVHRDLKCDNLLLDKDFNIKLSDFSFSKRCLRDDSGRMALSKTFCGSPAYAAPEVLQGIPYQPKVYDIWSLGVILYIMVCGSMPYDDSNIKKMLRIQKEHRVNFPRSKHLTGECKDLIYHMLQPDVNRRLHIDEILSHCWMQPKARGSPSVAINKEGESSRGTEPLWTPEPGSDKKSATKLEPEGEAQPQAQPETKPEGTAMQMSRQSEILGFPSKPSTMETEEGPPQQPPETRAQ
Sequence of PTK6 (human) (Q13882 whole entry, looked up): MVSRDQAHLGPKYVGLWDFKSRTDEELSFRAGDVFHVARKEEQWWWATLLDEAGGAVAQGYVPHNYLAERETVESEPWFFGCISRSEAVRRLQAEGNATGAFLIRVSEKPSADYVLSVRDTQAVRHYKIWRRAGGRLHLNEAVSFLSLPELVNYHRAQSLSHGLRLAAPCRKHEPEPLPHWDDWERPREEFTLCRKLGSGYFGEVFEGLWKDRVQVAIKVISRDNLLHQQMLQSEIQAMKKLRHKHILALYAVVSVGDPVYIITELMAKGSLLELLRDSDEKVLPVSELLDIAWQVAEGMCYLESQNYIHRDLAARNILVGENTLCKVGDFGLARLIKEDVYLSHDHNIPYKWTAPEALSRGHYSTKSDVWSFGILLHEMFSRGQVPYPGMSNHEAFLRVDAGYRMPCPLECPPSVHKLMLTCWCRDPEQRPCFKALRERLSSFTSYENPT
Sequence of SIK2 (human) (Q9H0K1 whole entry, looked up): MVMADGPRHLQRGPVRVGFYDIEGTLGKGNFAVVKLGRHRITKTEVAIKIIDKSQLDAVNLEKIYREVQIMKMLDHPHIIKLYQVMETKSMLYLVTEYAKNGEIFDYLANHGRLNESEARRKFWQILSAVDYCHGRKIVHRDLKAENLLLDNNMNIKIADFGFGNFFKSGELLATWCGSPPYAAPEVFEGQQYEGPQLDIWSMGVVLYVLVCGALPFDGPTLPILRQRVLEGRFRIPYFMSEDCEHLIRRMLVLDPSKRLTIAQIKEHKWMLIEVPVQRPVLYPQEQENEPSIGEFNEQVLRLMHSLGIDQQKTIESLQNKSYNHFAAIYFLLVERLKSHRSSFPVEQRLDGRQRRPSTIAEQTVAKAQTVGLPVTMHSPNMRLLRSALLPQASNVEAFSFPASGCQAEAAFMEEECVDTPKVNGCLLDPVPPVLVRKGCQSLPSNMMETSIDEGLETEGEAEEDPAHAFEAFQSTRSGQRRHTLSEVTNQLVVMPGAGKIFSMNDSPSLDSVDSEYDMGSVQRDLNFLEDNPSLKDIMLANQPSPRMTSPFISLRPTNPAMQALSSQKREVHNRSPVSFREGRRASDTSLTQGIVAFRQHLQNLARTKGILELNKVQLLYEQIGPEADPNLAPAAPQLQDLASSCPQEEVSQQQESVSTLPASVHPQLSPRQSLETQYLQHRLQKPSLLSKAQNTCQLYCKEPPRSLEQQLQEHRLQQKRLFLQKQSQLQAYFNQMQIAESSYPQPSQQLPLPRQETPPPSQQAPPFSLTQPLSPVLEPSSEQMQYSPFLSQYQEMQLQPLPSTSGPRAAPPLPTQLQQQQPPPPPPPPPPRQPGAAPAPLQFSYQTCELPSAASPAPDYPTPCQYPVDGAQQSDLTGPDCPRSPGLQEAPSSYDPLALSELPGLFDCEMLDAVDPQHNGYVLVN
Sequence of TESK1 (human) (Q15569 whole entry, looked up): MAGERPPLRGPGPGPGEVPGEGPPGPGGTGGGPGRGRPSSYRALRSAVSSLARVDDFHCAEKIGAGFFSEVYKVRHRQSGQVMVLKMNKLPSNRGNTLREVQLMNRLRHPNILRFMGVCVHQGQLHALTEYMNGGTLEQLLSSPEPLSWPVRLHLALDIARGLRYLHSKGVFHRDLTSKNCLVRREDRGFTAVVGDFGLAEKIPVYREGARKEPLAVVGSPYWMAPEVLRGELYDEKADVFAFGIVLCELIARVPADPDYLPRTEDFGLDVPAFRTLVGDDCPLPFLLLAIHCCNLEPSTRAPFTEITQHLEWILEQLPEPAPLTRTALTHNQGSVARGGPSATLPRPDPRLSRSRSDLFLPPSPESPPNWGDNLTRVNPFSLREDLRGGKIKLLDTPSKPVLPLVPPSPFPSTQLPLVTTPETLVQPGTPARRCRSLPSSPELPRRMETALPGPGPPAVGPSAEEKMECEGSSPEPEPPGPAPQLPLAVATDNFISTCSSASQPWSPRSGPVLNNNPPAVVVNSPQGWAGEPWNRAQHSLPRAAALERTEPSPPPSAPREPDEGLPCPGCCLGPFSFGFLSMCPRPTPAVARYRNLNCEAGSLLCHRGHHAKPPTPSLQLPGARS
Sequence of MAPK7 (human) (Q13164 whole entry, looked up): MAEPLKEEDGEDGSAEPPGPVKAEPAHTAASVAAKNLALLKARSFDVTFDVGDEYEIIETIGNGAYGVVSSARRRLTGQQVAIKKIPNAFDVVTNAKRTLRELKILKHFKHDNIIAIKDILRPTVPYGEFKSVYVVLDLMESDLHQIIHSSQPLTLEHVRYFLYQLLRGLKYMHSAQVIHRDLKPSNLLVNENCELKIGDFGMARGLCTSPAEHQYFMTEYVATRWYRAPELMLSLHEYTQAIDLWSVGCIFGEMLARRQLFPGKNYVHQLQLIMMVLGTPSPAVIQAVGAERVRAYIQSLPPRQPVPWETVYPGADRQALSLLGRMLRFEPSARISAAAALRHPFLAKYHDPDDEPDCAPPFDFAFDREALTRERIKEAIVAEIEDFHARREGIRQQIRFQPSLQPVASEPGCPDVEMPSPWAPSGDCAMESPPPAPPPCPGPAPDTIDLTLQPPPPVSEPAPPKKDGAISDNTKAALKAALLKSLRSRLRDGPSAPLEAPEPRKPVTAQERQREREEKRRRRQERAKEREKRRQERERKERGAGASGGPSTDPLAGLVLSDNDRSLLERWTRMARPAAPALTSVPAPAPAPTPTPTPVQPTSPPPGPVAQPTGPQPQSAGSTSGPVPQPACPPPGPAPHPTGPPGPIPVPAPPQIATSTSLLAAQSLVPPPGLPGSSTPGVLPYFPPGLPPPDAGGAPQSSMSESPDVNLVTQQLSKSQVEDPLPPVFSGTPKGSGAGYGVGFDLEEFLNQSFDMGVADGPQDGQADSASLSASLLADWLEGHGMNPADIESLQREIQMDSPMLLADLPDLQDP
Sequence of PRKAA1 PRKAB2 PRKAG1 (human) (O43741 whole entry, looked up): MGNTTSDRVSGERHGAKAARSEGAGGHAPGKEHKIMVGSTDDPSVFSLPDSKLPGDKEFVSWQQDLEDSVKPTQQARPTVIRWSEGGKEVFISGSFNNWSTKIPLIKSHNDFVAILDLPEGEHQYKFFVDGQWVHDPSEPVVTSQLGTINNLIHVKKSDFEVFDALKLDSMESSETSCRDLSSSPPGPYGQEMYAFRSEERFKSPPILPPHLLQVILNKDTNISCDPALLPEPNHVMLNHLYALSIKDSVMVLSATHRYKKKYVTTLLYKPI
Sequence of PRKAA1 PRKAB2 PRKAG1 (human) (P54619 whole entry, looked up): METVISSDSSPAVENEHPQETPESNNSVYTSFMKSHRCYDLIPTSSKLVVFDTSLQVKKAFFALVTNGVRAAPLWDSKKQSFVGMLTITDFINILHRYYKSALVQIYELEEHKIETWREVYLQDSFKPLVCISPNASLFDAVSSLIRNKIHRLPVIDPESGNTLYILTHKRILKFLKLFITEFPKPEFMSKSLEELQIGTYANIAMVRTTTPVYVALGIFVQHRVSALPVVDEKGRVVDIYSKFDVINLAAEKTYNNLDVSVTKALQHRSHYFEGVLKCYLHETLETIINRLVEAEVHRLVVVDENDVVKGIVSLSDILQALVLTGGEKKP
Sequence of PRKAA1 PRKAB2 PRKAG1 (human) (Q13131 whole entry, looked up): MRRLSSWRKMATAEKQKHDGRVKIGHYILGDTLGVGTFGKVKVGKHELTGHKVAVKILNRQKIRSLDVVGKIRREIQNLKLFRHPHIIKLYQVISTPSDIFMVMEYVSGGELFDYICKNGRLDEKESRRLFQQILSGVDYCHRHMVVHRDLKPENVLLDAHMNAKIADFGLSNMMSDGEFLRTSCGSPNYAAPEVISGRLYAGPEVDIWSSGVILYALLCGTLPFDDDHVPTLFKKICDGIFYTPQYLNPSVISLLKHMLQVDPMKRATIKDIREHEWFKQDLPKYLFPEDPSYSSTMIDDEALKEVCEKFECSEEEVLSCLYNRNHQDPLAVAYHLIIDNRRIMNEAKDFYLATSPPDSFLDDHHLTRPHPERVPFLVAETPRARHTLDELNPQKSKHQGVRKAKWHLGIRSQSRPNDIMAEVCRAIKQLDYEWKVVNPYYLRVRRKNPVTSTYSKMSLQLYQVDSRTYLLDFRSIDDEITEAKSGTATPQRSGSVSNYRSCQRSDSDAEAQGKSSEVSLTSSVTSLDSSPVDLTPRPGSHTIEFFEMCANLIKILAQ
Sequence of AURKC (human) (Q9UQB9 whole entry, looked up): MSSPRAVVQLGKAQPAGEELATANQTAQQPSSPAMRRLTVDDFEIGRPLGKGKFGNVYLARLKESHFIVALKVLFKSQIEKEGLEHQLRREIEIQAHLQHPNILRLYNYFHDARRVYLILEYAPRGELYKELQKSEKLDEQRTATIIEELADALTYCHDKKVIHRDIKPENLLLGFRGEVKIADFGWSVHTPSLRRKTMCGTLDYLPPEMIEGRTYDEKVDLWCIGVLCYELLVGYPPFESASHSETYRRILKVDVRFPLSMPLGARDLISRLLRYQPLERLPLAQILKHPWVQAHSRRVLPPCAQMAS
Sequence of NEK7 (human) (Q8TDX7 whole entry, looked up): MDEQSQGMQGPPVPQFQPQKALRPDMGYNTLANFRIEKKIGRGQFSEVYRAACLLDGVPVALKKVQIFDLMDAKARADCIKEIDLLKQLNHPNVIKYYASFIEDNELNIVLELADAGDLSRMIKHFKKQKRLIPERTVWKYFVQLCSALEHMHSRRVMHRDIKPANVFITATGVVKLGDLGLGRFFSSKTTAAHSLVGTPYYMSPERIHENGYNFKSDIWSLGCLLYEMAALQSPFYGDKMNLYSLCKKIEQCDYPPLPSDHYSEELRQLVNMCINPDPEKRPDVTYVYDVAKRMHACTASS

- residual activity ([3]; compound 1.0 µM): 111%
- residual activity ([3]; compound 10.0 µM): 114%
- residual activity ([1]; compound 1.0 µM): 96%
- residual activity ([1]; compound 10.0 µM): 106%
- residual activity ([4]; compound 1.0 µM): 92%
- residual activity ([4]; compound 10.0 µM): 117%
- residual activity ([2]; compound 1.0 µM): 88%
- residual activity ([2]; compound 10.0 µM): 91%
SMILES: Cc1cccc(Nc2nn(C)c3ncnc(N)c23)c1

- residual activity ([1]; compound 10.0 µM): 88%
- residual activity ([1]; compound 50.0 µM): 28%
- residual activity ([1]; compound 100.0 µM): 25%
- residual activity ([4]; compound 50.0 µM): 30%
- residual activity ([2]; compound 50.0 µM): 102%
SMILES: N#Cc1c(O)c2c(-c3ccc(-c4ccccc4O)cc3)csc2[nH]c1=O

- residual activity ([3]; compound 0.1 µM): 109%
- residual activity ([3]; compound 1.0 µM): 97%
- residual activity ([3]; compound 10.0 µM): 101%
- residual activity ([1]; compound 0.1 µM): 99%
- residual activity ([1]; compound 1.0 µM): 98%
- residual activity ([1]; compound 10.0 µM): 79%
- residual activity ([4]; compound 0.1 µM): 48%
- residual activity ([4]; compound 1.0 µM): 13%
- residual activity ([4]; compound 10.0 µM): 7%
- residual activity ([2]; compound 0.1 µM): 94%
- residual activity ([2]; compound 1.0 µM): 84%
- residual activity ([2]; compound 10.0 µM): 82%
SMILES: COc1ccc2c(c1)c1c3c(c4c5ccccc5n(C)c4c1n2CC(O)CN(C)C)C(=O)NC3=O (configuration not stated)

- residual activity ([3]; compound 1.0 µM): 89%
- residual activity ([3]; compound 10.0 µM): 112%
- residual activity ([1]; compound 1.0 µM): 92%
- residual activity ([1]; compound 10.0 µM): 94%
- residual activity ([4]; compound 1.0 µM): 125%
- residual activity ([4]; compound 10.0 µM): 117%
- residual activity ([2]; compound 1.0 µM): 94%
- residual activity ([2]; compound 10.0 µM): 99%
SMILES: Cn1nc(Nc2ccc(F)cc2)c2c(N)ncnc21

Second part, the compound before the results:

SMILES: CCCC(CCC)C(=O)O
- residual activity ([1]; compound 1.0 µM): 97%
- residual activity ([1]; compound 10.0 µM): 95%
- residual activity ([1]; compound 50.0 µM): 93%
- residual activity ([2]; compound 1.0 µM): 99%

SMILES: Oc1ccc(/C=C/c2cc(O)cc(O)c2)cc1
- residual activity ([3]; compound 1.0 µM): 98%
- residual activity ([3]; compound 50.0 µM): 30%
- residual activity ([1]; compound 1.0 µM): 90%
- residual activity ([1]; compound 10.0 µM): 87%
- residual activity ([1]; compound 50.0 µM): 78%
- residual activity ([4]; compound 1.0 µM): 75%
- residual activity ([4]; compound 50.0 µM): 32%
- residual activity ([2]; compound 1.0 µM): 94%
- residual activity ([2]; compound 50.0 µM): 95%

SMILES: COC(=O)/C=C/C(=O)OC
- residual activity ([5]; compound 10.0 µM): 109%
- residual activity ([5]; compound 100.0 µM): 104%
- residual activity ([5]; compound 1000.0 µM): 114%
- residual activity ([6]; compound 10.0 µM): 73%
- residual activity ([6]; compound 100.0 µM): 85%
- residual activity ([6]; compound 1000.0 µM): 80%
- residual activity ([7]; compound 10.0 µM): 92%
- residual activity ([7]; compound 100.0 µM): 101%
- residual activity ([7]; compound 1000.0 µM): 101%
- residual activity ([8]; compound 10.0 µM): 93%
- residual activity ([8]; compound 100.0 µM): 99%
- residual activity ([8]; compound 1000.0 µM): 102%
- residual activity ([9]; compound 10.0 µM): 95%
- residual activity ([9]; compound 100.0 µM): 107%
- residual activity ([10]; compound 10.0 µM): 91%
- residual activity ([10]; compound 100.0 µM): 87%
- residual activity ([11]; compound 10.0 µM): 98%
- residual activity ([11]; compound 100.0 µM): 105%
- residual activity ([11]; compound 1000.0 µM): 95%
- residual activity ([12]; compound 10.0 µM): 98%
- residual activity ([12]; compound 1000.0 µM): 110%
- residual activity ([13]; compound 10.0 µM): 101%
- residual activity ([13]; compound 100.0 µM): 103%
- residual activity ([13]; compound 1000.0 µM): 104%
- residual activity ([14]; compound 10.0 µM): 92%
- residual activity ([14]; compound 100.0 µM): 81%
- residual activity ([14]; compound 1000.0 µM): 85%
- residual activity ([15]; compound 10.0 µM): 97%
- residual activity ([15]; compound 100.0 µM): 99%
- residual activity ([15]; compound 1000.0 µM): 103%
- residual activity ([16]; compound 10.0 µM): 88%
- residual activity ([16]; compound 100.0 µM): 101%
- residual activity ([17]; compound 10.0 µM): 106%
- residual activity ([17]; compound 100.0 µM): 113%
- residual activity ([17]; compound 1000.0 µM): 114%
- residual activity ([18]; compound 10.0 µM): 103%
- residual activity ([18]; compound 100.0 µM): 117%
- residual activity ([18]; compound 1000.0 µM): 110%
- residual activity ([1]; compound 10.0 µM): 94%
- residual activity ([1]; compound 100.0 µM): 100%
- residual activity ([1]; compound 1000.0 µM): 91%
- residual activity ([19]; compound 10.0 µM): 84%
- residual activity ([19]; compound 100.0 µM): 89%
- residual activity ([19]; compound 1000.0 µM): 109%
- residual activity ([20]; compound 10.0 µM): 116%
- residual activity ([20]; compound 100.0 µM): 116%
- residual activity ([20]; compound 1000.0 µM): 112%
- residual activity ([21]; compound 10.0 µM): 101%
- residual activity ([21]; compound 100.0 µM): 100%
- residual activity ([21]; compound 1000.0 µM): 97%
- residual activity ([22]; compound 100.0 µM): 104%
- residual activity ([22]; compound 1000.0 µM): 112%
- residual activity ([23]; compound 10.0 µM): 87%
- residual activity ([23]; compound 100.0 µM): 95%
- residual activity ([23]; compound 1000.0 µM): 102%
- residual activity ([24]; compound 10.0 µM): 82%
- residual activity ([24]; compound 100.0 µM): 94%
- residual activity ([24]; compound 1000.0 µM): 103%
- residual activity ([25]; compound 10.0 µM): 91%
- residual activity ([25]; compound 100.0 µM): 98%
- residual activity ([25]; compound 1000.0 µM): 103%
- residual activity ([26]; compound 10.0 µM): 88%
- residual activity ([26]; compound 100.0 µM): 94%
- residual activity ([26]; compound 1000.0 µM): 97%
- residual activity ([27]; compound 10.0 µM): 103%
- residual activity ([27]; compound 100.0 µM): 100%
- residual activity ([28]; compound 10.0 µM): 102%
- residual activity ([28]; compound 100.0 µM): 112%
- residual activity ([28]; compound 1000.0 µM): 110%
- residual activity ([29]; compound 10.0 µM): 106%
- residual activity ([29]; compound 100.0 µM): 109%
- residual activity ([29]; compound 1000.0 µM): 109%
- residual activity ([30]; compound 10.0 µM): 96%
- residual activity ([30]; compound 100.0 µM): 107%
- residual activity ([30]; compound 1000.0 µM): 116%
- residual activity ([31]; compound 10.0 µM): 96%
- residual activity ([31]; compound 100.0 µM): 99%
- residual activity ([31]; compound 1000.0 µM): 96%
- residual activity ([32]; compound 10.0 µM): 93%
- residual activity ([32]; compound 1000.0 µM): 95%
- residual activity ([33]; compound 10.0 µM): 114%
- residual activity ([33]; compound 100.0 µM): 116%
- residual activity ([33]; compound 1000.0 µM): 109%
- residual activity ([34]; compound 10.0 µM): 92%
- residual activity ([34]; compound 100.0 µM): 100%
- residual activity ([34]; compound 1000.0 µM): 99%
